The source of these data is patent publication US20250101041A1, “POSITIVE ALLOSTERIC MODULATORS OF THE MUSCARINIC ACETYLCHOLINE RECEPTOR M4” (Vanderbilt University, priority 2022, published 2025).

As a reminder, the Emax is the greatest response seen or fitted, relative to the assay's reference. In general, EC50 refers to the concentration giving half of the maximal effect.

The target of the assay is T1, human mAChR M4 (Homo sapiens, UniProt P08173).
T1 construct: expressed in transfected cells; host or cells: CHO-K1 (American Type Culture Collection), stably expressing hM4 and Gqi5
T1 sequence (P08173 1-479): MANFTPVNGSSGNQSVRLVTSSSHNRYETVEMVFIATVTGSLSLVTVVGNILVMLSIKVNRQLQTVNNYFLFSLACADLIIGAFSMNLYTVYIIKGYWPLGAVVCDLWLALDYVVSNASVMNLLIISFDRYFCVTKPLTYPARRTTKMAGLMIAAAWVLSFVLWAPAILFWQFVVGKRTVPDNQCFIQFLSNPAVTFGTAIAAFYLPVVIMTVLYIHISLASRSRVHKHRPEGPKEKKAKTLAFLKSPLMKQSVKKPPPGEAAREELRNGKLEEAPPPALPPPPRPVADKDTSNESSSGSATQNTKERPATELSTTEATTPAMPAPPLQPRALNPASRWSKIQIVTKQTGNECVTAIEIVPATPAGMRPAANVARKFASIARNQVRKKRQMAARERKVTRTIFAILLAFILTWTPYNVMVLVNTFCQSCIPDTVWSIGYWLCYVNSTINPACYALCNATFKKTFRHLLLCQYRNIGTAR
The assay is described as follows: mAChR M4 cell-based functional assay: calcium mobilization (Fluo-4, FDSS), potentiation of EC20 acetylcholine response in hM4-Gqi5 CHO-K1 cells. As to conditions: human M4; for Emax at 30 µM: CHO-K1, % ACh maximum at 30 μM; for EC50: potentiation of EC20 acetylcholine response, calcium mobilization. As to the method:
Human and rat M4 cDNAs, along with the chimeric G protein Gqi5, were transfected into Chinese hamster ovary (CHO-K1) cells purchased from the American Type Culture Collection using Lipofectamine2000. hM4-Gqi5 cells were grown in Ham's F-12 medium containing 10% heat-inactivated fetal bovine serum (FBS), 20 mM HEPES, 50 μg/mL G418 sulfate, and 500 μg/mL Hygromycin B. rM4-Gqi5 cells were grown in DMEM containing 10% heat-inactivated FBS, 20 mM HEPES, 400 μg/mL G418 sulfate, and 500 μg/mL Hygromycin B.
For high throughput measurement of agonist-evoked increases in intracellular calcium, CHO-K1 cells stably expressing muscarinic receptors were plated in growth medium lacking G418 and hygromycin at 15,000 cells/20 μL/well in Greiner 384-well black-walled, tissue culture (TC)-treated, clear-bottom plates (VWR). Cells were incubated overnight at 37° C. and 5% CO2. The next day, cells were washed using an ELX 405 (BioTek) with assay buffer; the final volume was then aspirated to 20 μL. Next, 20 μL of a […] of Fluo-4/acetoxymethyl ester (Invitrogen, Carlsbad, CA), prepared as a 2.3 mM stock in DMSO and mixed in a 1:1 ratio with 10% (w/v) Pluronic F-127 and diluted in assay buffer, was added to the wells and the cell plates were incubated for 50 min at 37° C. and 5% CO2. Dye was removed by washing with the ELX 405 and the final volume was aspirated to 20 μL. Compound master plates were formatted in an 11 point concentration-response curve (CRC) format (1:3 dilutions) in 100% DMSO with a starting concentration of 10 mM using a BRAVO liquid handler (Agilent). Test compound CRCs were then transferred to daughter plates (240 nL) using the Echo acoustic plate reformatter (Labcyte, Sunnyvale, CA) and then diluted into assay buffer (40 μL) to a 2× stock using a Thermo Fisher Combi (Thermo Fisher Scientific, Waltham, MA).
Calcium flux was measured using the Functional Drug Screening System (FDSS) 6000 or 7000 (Hamamatsu Corporation, Tokyo, Japan) as an increase in the fluorescent static ratio. Compounds were applied to cells (20 μL, 2X) using the automated system of the FDSS at 2-4 seconds into the protocol and the data were collected at 1 Hz. At 144 seconds, 10 μL of an EC20 concentration of the muscarinic receptor agonist acetylcholine was added (5×), followed by the addition of 12 μL of an […] concentration of acetylcholine at the 230 second time point (5×). Agonist activity was analyzed as a concentration-dependent increase in calcium mobilization upon compound addition. Positive allosteric modulator activity was analyzed as a concentration-dependent increase in the EC20 acetylcholine response. Antagonist activity was analyzed as a concentration-dependent decrease in the EC20 acetylcholine response. Concentration-response curves were generated using a four-parameter logistical equation in XLFit curve fitting software (IDBS, Bridgewater, NJ) for Excel (Microsoft, Redmond, WA) or Prism (GraphPad Software, Inc., San Diego, CA).
Compounds were synthesized as described above. Activity (EC50 and Emax) was determined in the mAChR M4 cell-based functional assay as described above and the data are shown in Table 4. The compound number corresponds to the compound numbers used in Tables 1-3.
(In general: Calcium assays in cells follow changes in intracellular calcium, usually with a dye or a luminescent sensor.)

Regarding `Cc1c(N2CCc3ncc(-c4ccnnc4)cc3C2)nn2c(=O)cc(C(F)F)nc2c1C` [Compound 1-158, 2-(difluoromethyl)-8,9-dimethyl-7-(3-(pyridazin-4-yl)-7,8-dihydro-1,6-naphthyridin-6(5H)-yl)-4H-pyrimido[1,2-b]pyridazin-4-one], the Emax at 30 µM was 94% and the EC50 amounted to 251 nM.

For the compound `Cc1cc(F)ccc1Nc1cnc2c(c1)CN(c1nn3c(=O)ccnc3cc1C)CC2` [Compound 2-65, 7-(3-((4-fluoro-2-methylphenyl)amino)-7,8-dihydro-1,6-naphthyridin-6(5H)-yl)-8-methyl-4H-pyrimido[1,2-b]pyridazin-4-one], the Emax at 30 µM was 90% and the 50% effective concentration (EC50) was 99 nM.

As for `Cc1cc2nccc(=O)n2nc1N1CCc2ncc(N3CCOC(C)(C)C3)cc2C1` [Compound 2-68, 7-(3-(2,2-dimethylmorpholino)-7,8-dihydro-1,6-naphthyridin-6(5H)-yl)-8-methyl-4H-pyrimido[1,2-b]pyridazin-4-one], the Emax at 30 µM is 96% and the EC50 stood at 113 nM.

Turning to `Cc1ccc(-c2cnc3c(c2)CN(c2nn4c(=O)cc(C(F)F)nc4c(C)c2C)CC3)cn1` [Compound 1-85, 2-(difluoromethyl)-8,9-dimethyl-7-(3-(6-methylpyridin-3-yl)-7,8-dihydro-1,6-naphthyridin-6(5H)-yl)-4H-pyrimido[1,2-b]pyridazin-4-one], the Emax at 30 µM is 103% and the EC50 stood at 127 nM.

Consider `COc1ccccc1-c1cnc2c(c1)CN(c1nn3c(=O)cc(C)nc3cc1C)CC2` [Compound 1-233, 7-(3-(2-methoxyphenyl)-7,8-dihydro-1,6-naphthyridin-6(5H)-yl)-2,8-dimethyl-4H-pyrimido[1,2-b]pyridazin-4-one], for which the Emax at 30 µM is 65% and the half-maximal effective concentration (EC50) is 735 nM.

Turning to `Cc1cc(=O)n2nc(N3CCc4ncc(-c5cn6ccnc6cc5C)cc4C3)c(C)c(C)c2n1` [Compound 1-131, 2,8,9-trimethyl-7-(3-(7-methylimidazo[1,2-a]pyridin-6-yl)-7,8-dihydro-1,6-naphthyridin-6(5H)-yl)-4H-pyrimido[1,2-b]pyridazin-4-one], the Emax at 30 µM stood at 62% and the EC50 is 1760 nM.

As for `Cc1cc(=O)n2nc(N3CCc4ncc(-c5cc(F)ncc5F)cc4C3)c(C)cc2n1` [Compound 1-258, 7-(3-(2,5-difluoropyridin-4-yl)-7,8-dihydro-1,6-naphthyridin-6(5H)-yl)-2,8-dimethyl-4H-pyrimido[1,2-b]pyridazin-4-one], the maximal response (Emax) at 30 µM amounted to 67% and the EC50 came to 363 nM.

In the case of `Cc1cc(=O)n2nc(N3CCc4ncc(N5CCOc6ncccc65)cc4C3)c(C)cc2n1` [Compound 2-17, 7-(3-(2,3-dihydro-1H-pyrido[2,3-b][1,4]oxazin-1-yl)-7,8-dihydro-1,6-naphthyridin-6(5H)-yl)-2,8-dimethyl-4H-pyrimido[1,2-b]pyridazin-4-one], the Emax at 30 µM amounted to 98% and the half-maximal effective concentration (EC50) worked out at 9 nM.

Consider `COCc1cc(=O)n2nc(N3CCc4ncc(-c5ccsc5)cc4C3)c(C)cc2n1` [Compound 1-370, 2-(methoxymethyl)-8-methyl-7-(3-(thiophen-3-yl)-7,8-dihydro-1,6-naphthyridin-6(5H)-yl)-4H-pyrimido[1,2-b]pyridazin-4-one], for which the maximal effect (Emax) at 30 µM is 94% and the EC50 was 153 nM.

`Cc1cc(=O)n2nc(N3CCc4ncc(-c5ccccc5F)cc4C3)c(C)c(C)c2n1` [Compound 1-251, 7-(3-(2-fluorophenyl)-7,8-dihydro-1,6-naphthyridin-6(5H)-yl)-2,8,9-trimethyl-4H-pyrimido[1,2-b]pyridazin-4-one]: the maximal response (Emax) at 30 µM is 84% and the EC50 was 289 nM.

In the case of `Cc1cc2nccc(=O)n2nc1N1CCc2ncc(-c3cn(C)nc3C(F)F)cc2C1` [Compound 1-412, 7-(3-(3-(difluoromethyl)-1-methyl-1H-pyrazol-4-yl)-7,8-dihydro-1,6-naphthyridin-6(5H)-yl)-8-methyl-4H-pyrimido [1,2-b]pyridazin-4-one], the Emax at 30 µM is 86% and the 50% effective concentration (EC50) is 352 nM.

As to `COc1ccc(-c2cnc3c(c2)CN(c2nn4c(=O)ccnc4cc2C)CC3)cn1` [Compound 1-60, 7-(3-(6-methoxypyridin-3-yl)-7,8-dihydro-1,6-naphthyridin-6(5H)-yl)-8-methyl-4H-pyrimido[1,2-b]pyridazin-4-one], the Emax at 30 µM was 104% and the EC50 came out at 140 nM.

On to `Cc1cc2ncc(Cl)c(=O)n2nc1N1CCc2ncc(-c3cnn(C4CC4)c3)cc2C1` [Compound 1-12, 3-chloro-7-(3-(1-cyclopropyl-1H-pyrazol-4-yl)-7,8-dihydro-1,6-naphthyridin-6(5H)-yl)-8-methyl-4H-pyrimido[1,2-b]pyridazin-4-one], for which the maximal response (Emax) at 30 µM turned out to be 80% and the EC50 was 127 nM.

For `Cc1cc(=O)n2nc(N3CCc4ncc(-c5ccc(CO)s5)cc4C3)c(C)cc2n1` [Compound 1-299, 7-(3-(5-(hydroxymethyl)thiophen-2-yl)-7,8-dihydro-1,6-naphthyridin-6(5H)-yl)-2,8-dimethyl-4H-pyrimido[1,2-b]pyridazin-4-one], the Emax at 30 µM is 93% and the 50% effective concentration (EC50) is 41 nM.

With `Cc1c(N2CCc3ncc(Oc4ccccc4F)cc3C2)nn2c(=O)ccnc2c1C` [Compound 3-3, 7-(3-(2-Fluorophenoxy)-7,8-dihydro-1,6-naphthyridin-6(5H)-yl)-8,9-dimethyl-4H-pyrimido[1,2-b]pyridazin-4-one], the maximum response (Emax) at 30 µM came out at 96% and the concentration for a half-maximal effect (EC50) was found to be 29 nM.

Turning to `Cc1c(N2CCc3ncc(C(F)(F)F)cc3C2C)nn2c(=O)ccnc2c1C` (single isomer, unassigned) [Compound 1-386, 8,9-dimethyl-7-(5-methyl-3-(trifluoromethyl)-7,8-dihydro-1,6-naphthyridin-6(5H)-yl)-4H-pyrimido[1,2-b] pyridazin-4-one], the half-maximal effective concentration (EC50) was determined as 950 nM. Besides, the “Emax (%)*” value (% ACh maximum at 30 μM) was 80%.

On to `COc1ccc(-c2cnc3c(c2)CN(c2nn4c(=O)cc(C(F)(F)F)nc4cc2C)CC3)cn1` [Compound 1-75, 7-(3-(6-methoxypyridin-3-yl)-7,8-dihydro-1,6-naphthyridin-6(5H)-yl)-8-methyl-2-(trifluoromethyl)-4H-pyrimido[1,2-b]pyridazin-4-one], for which the Emax at 30 µM amounted to 46% and the EC50 was 1250 nM.

For the compound `COCc1cc(=O)n2nc(N3CCc4ncc(-c5ccco5)cc4C3)c(C)cc2n1` [Compound 1-371, 7-(3-(furan-2-yl)-7,8-dihydro-1,6-naphthyridin-6(5H)-yl)-2-(methoxymethyl)-8-methyl-4H-pyrimido[1,2-b]pyridazin-4-one], the maximal response (Emax) at 30 µM came to 92% and the EC50 is 140 nM.

For `COc1cccc(C2CN(c3cnc4c(c3)CN(c3nn5c(=O)ccnc5cc3C)CC4)CCO2)c1` (centres unmarked) [Compound 2-84, 7-(3-(2-(3-methoxyphenyl)morpholino)-7,8-dihydro-1,6-naphthyridin-6(5H)-yl)-8-methyl-4H-pyrimido[1,2-b]pyridazin-4-one], the Emax at 30 µM came out at 64% and the 50% effective concentration (EC50) turned out to be 1910 nM.
